From paper PMC11451537, “P2X7 receptors exhibit at least three modes of allosteric antagonism” (Science Advances, 2024)

Tests used:
Type in all cases: cell-based
[1] = target: T1, hP2X2 (Homo sapiens, UniProt Q9UBL9); test: TEVC inhibition dose-response (IC50), hP2X2 in Xenopus laevis oocytes; details: 10 μM ATP, mean ± SD, triplicate
T1 construct: The hP2X1-WT, hP2X2-WT, hP2X3-WT, hP2X4-WT, and hP2X7-WT constructs used for electrophysiology are similarly unmodified full-length, wild-type receptor constructs; expressed in transfected cells; host or cells: Xenopus laevis oocytes injected with mRNA made from pcDNA3.1x
T1 sequence (Q9UBL9 1-471): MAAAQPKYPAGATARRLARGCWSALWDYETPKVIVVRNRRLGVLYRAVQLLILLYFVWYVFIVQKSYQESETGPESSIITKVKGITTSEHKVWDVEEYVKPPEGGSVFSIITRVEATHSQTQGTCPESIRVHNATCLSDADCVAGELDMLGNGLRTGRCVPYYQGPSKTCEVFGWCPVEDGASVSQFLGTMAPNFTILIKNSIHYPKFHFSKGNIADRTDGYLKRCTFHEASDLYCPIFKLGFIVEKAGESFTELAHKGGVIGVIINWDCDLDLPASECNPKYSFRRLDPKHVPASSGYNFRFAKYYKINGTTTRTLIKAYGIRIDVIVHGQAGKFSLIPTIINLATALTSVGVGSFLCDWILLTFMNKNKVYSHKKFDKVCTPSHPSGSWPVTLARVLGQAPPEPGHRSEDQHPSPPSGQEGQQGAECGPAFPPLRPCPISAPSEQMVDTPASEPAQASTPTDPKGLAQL
Excerpt: (§1) To evaluate the inhibitory response of an antagonist for a dilution series, an initial excitatory signal was evoked at a subtype-specific concentration of ATP. Next, the antagonist was applied at a test concentration for 60 s and then coapplied at the same test concentration of the antagonist with the identical subtype-specific concentration of ATP. The antagonized signal was then normalized against the preceding excitatory signal evoked by ATP for each individual oocyte tested. The pre- and post-antagonist signals were evoked by 10 μM ATP for hP2X1, 10 μM ATP for hP2X2, 1 μM ATP for hP2X3, 50 μM ATP for hP2X4, and 100 μM ATP for P2X7. For the K297V mutation in rP2X7, pre- and post-antagonist signals were evoked by 300 μM ATP. Each dataset was then fit to a nonlinear regression named “[inhibitor] vs. response – Variable slope (four parameters)” in GraphPad Prism 9 to produce a sigmoidal curve and afford an IC50 value. Each singular condition was used to generate an average which is reported plus or minus its SD between three discrete trials.

[2] = target: T2, hP2X7 (Homo sapiens, UniProt Q99572); test: TEVC inhibition dose-response (IC50), hP2X7 in Xenopus laevis oocytes; design: hP2X4-WT, and hP2X7-WT constructs used for electrophysiology are similarly unmodified full-length, wild-type receptor constructs; expressed in transfected cells; host or cells: Xenopus laevis oocytes injected with mRNA made from pcDNA3.1x; details: 100 μM ATP, mean ± SD, triplicate
T2 sequence (Q99572 1-595): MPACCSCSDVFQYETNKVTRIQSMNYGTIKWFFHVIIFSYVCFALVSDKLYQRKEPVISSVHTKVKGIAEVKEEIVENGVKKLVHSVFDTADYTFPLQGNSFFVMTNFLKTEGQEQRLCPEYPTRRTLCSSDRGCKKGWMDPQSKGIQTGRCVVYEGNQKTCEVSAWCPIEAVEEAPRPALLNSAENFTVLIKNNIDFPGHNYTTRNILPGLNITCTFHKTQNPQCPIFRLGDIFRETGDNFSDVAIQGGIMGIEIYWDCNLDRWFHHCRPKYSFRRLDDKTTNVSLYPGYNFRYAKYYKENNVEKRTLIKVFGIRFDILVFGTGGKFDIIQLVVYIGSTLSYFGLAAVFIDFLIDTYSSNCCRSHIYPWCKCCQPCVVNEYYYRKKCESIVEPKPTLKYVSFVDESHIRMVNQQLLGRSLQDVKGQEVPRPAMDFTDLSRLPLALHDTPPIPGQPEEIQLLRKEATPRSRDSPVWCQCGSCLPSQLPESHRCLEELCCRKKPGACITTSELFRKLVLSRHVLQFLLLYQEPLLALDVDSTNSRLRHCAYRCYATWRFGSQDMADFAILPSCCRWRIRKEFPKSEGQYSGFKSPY
Excerpt: as §1

[3] = target: T3, hP2X1 (Homo sapiens, UniProt P51575); test: TEVC inhibition dose-response (IC50), hP2X1 in Xenopus laevis oocytes; details: 10 μM ATP, mean ± SD, triplicate
T3 construct: The hP2X1-WT, hP2X2-WT, hP2X3-WT, hP2X4-WT, and hP2X7-WT constructs used for electrophysiology are similarly unmodified full-length, wild-type receptor constructs; expressed in transfected cells; host or cells: Xenopus laevis oocytes injected with mRNA made from pcDNA3.1x
T3 sequence (P51575 1-399): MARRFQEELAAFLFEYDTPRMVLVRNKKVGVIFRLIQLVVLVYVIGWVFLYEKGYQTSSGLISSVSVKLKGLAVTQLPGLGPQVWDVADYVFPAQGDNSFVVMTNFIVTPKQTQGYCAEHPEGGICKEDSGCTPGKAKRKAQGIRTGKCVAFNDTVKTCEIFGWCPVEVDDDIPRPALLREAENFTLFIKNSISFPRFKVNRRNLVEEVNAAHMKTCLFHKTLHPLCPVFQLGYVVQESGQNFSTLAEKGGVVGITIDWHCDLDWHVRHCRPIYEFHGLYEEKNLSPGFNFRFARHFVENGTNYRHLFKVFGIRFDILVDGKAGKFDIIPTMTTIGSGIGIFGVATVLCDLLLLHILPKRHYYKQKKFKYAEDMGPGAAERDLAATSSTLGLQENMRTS
Excerpt: as §1

[4] = target: T2, hP2X7; test: TEVC recovery of current after complete inhibition (IC100), hP2X7; design: hP2X7-WT constructs used for electrophysiology are similarly unmodified full-length, wild-type receptor constructs; expressed in transfected cells; host or cells: Xenopus laevis oocytes injected with mRNA made from pcDNA3.1x; details: 120 s buffer wash, 100 μM ATP
Excerpt: Experiments were run in triplicate.

[5] = target: T4, hP2X4 (Homo sapiens, UniProt Q99571); test: TEVC inhibition dose-response (IC50), hP2X4 in Xenopus laevis oocytes; details: 50 μM ATP, mean ± SD, triplicate
T4 sequence (Q99571 1-388): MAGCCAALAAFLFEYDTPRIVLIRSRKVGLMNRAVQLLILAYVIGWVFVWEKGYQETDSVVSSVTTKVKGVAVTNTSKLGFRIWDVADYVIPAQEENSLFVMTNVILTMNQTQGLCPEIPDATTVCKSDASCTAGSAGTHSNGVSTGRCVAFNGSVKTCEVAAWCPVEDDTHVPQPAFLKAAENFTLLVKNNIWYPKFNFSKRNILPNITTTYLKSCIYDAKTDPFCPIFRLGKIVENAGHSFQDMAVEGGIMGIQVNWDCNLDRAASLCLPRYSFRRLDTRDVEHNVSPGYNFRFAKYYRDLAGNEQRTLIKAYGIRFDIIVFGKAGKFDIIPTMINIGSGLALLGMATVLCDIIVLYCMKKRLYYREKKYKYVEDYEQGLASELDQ
Excerpt: as §1

In the case of `O=S(=O)(O)c1ccc(N=C2C=CC(=C(c3ccc(Nc4ccc(S(=O)(=O)O)cc4)cc3)c3ccc(Nc4ccc(S(=O)(=O)O)cc4)cc3)C=C2)cc1` [methyl blue], the IC50 [1] is reported as 13 ± 2 µM, the IC50 [2] is reported as 4 ± 2 µM and the IC50 [3] is reported as 0.4 ± 0.1 µM. The “Recovery of activation (% of baseline current)” value ([4]; hP2X7, 40-s IC100 application) was 34 ± 3%, the “Recovery of activation (% of baseline current)” value ([4]; hP2X7, 120-s IC100 application) was 17 ± 6% and the “Recovery of activation (% of baseline current)” value ([4]; hP2X7, 240-s IC100 application) was 2 ± 1%. The IC50 [5] was 51 ± 6 µM.
